Tests used:
CWR22R [1] = experiment: Antiproliferative activity against human 22Rv1 cells after 96 hrs by propidium iodide staining based fluorescence 2D monolayer assay; type: functional, cell-based; settings: 22Rv1, 96 h
DU-145 [2] = experiment: Antiproliferative activity against human DU145 cells after 96 hrs by propidium iodide staining based fluorescence 2D monolayer assay; type: functional, cell-based; settings: DU-145, 96 h
LNCaP [3] = experiment: Antiproliferative activity against human LNCAP cells after 96 hrs by propidium iodide staining based fluorescence 2D monolayer assay; type: functional, cell-based
VCaP [4] = experiment: Antiproliferative activity against human VCaP cells after 96 hrs by propidium iodide staining based fluorescence 2D monolayer assay; type: functional, cell-based
[5] = molecular target: T1, Androgen receptor (Rattus norvegicus) (UniProt P15207); experiment: (§1) Antagonist activity at rat androgen receptor fused with DNA-binding domain of GAL4 expressed in AR-UAS-bla GripTite 293 cells assessed as inhibition of R1881-induced receptor activation preincubated for 30 mins followed by R1881 addition measured after 16 to 24 hrs by betalactamase reporter gene assay; type: cell-based
T1 sequence (whole entry): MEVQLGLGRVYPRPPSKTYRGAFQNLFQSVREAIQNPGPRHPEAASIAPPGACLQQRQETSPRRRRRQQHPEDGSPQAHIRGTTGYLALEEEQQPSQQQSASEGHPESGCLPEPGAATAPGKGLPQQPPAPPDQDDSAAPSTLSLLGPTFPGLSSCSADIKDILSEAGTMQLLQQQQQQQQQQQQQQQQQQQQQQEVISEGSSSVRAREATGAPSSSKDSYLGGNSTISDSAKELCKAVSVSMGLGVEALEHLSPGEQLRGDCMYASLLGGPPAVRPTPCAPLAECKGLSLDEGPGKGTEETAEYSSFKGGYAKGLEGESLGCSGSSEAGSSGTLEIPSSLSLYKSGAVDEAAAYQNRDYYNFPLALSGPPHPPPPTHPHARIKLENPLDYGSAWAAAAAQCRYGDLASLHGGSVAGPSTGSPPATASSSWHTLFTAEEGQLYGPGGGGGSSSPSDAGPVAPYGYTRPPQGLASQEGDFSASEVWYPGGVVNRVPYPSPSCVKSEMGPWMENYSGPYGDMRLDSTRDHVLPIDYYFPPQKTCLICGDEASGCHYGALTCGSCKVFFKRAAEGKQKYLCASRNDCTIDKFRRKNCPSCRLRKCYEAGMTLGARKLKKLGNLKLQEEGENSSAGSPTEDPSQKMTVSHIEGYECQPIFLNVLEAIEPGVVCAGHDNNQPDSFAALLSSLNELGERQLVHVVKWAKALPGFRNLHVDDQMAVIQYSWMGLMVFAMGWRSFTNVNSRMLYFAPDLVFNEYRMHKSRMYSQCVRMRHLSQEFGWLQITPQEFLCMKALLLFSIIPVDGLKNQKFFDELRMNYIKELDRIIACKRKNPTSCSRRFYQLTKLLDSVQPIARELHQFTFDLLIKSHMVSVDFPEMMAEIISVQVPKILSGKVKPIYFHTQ

Androgen receptor = molecular target: T2, Androgen receptor (Rattus norvegicus, UniProt P15207); experiment: as §1; type: cell-based
T2 sequence (P15207 whole entry): T1 sequence (whole entry)

[6] = Half life in human liver microsomes at 3 uM preincubated with compound followed by NADPH addition by LC-MS/MS analysis
HepG2 [7] = experiment: Cytotoxicity against human HepG2 cells assessed as reduction in cell viability after 72 hrs by MTT assay; type: functional, cell-based; settings: HepG2, 72 h; for minimal effective concentration: read-out: MEC
HepG2 [8] = experiment: Cytotoxicity against human HepG2 cells assessed as reduction in cell viability at 100 uM after 72 hrs by MTT assay relative to control; type: functional
in vitro = settings: human
[9] = Apparent permeability from apical to basolateral side in human Caco2 cells at 10 uM incubated for 120 mins by LC-MS/MS analysis; settings: Caco-2
[10] = Apparent permeability from basolateral to apical side in human Caco2 cells at 10 uM incubated for 120 mins by LC-MS/MS analysis; settings: Caco-2
[11] = Efflux ratio of apparent permeability from basolateral to apical side over apical to basolateral side in human Caco2 cells at 10 uM incubated for 120 mins by LC-MS/MS analysis; settings: Caco-2
[12] = 96 h
Description: Solubility in RPMI1640 culture medium at <30 uM incubated for 4 days by microscopic analysis

[13] = 33000 µM
Description: Solubility in 100% DMSO at 33 mM at -20 degC

LNCaP [14] = experiment: Antiproliferative activity against human LNCAP cells assessed as relative inhibition after 96 hrs by propidium iodide staining based fluorescence 2D monolayer assay; type: functional, cell-based
DU-145 [15] = experiment: Antiproliferative activity against human DU145 cells assessed as relative inhibition after 96 hrs by propidium iodide staining based fluorescence 2D monolayer assay; type: functional, cell-based; settings: DU-145, 96 h
CWR22R [16] = experiment: Antiproliferative activity against human 22Rv1 cells assessed as relative inhibition after 96 hrs by propidium iodide staining based fluorescence 2D monolayer assay; type: functional, cell-based; settings: 22Rv1, 96 h
VCaP [17] = experiment: Antiproliferative activity against human VCaP cells assessed as relative inhibition after 96 hrs by propidium iodide staining based fluorescence 2D monolayer assay; type: functional, cell-based
CWR22R [18] = experiment: Potency index, ratio of bicalutamide IC50 to compound IC50 for human 22Rv1 cells; type: functional
DU-145 [19] = experiment: Potency index, ratio of bicalutamide IC50 to compound IC50 for human DU145 cells; type: functional
LNCaP [20] = experiment: Potency index, ratio of bicalutamide IC50 to compound IC50 for human LNCAP cells; type: functional
VCaP [21] = experiment: Potency index, ratio of bicalutamide IC50 to compound IC50 for human VCaP cells; type: functional

Compound	IC50 (CWR22R [1])	IC50 (DU-145 [2])	IC50 (LNCaP [3])	IC50 (VCaP [4])	inhibition [5]	IC50 (Androgen receptor)	AC50 (HepG2 [7])	minimal effective concentration (HepG2 [7])	microsomal CLint at 3 µM (in vitro; liver microsomes)	Papp A→B at 2 h, 10 µM [9]	Papp B→A at 2 h, 10 µM [10]	efflux ratio at 2 h, 10 µM [11]	solubility [12]	solubility [13]	IC70 (CWR22R [1])	IC70 (DU-145 [2])	IC70 (LNCaP [3])	IC70 (VCaP [4])	IC50 (LNCaP [14])	IC70 (LNCaP [14])	other results
CC(O)(COc1ccc(C#N)cc1C(F)(F)F)C(=O)Nc1ccc([N+](=O)[O-])c(C(F)(F)F)c1 (configuration not stated)	5.55 µM	7.65 µM	5.69 µM	8.38 µM	Dose-dependent effect	0.0722 µM	20.2 µM	10.6 µM	2.59 µL/min/mg												half-life at 3 µM ([6]; liver microsomes): 534 min; cell viability reduction (HepG2 [8]): 98%
CC(O)(CSc1cccc(C(F)(F)F)c1)C(=O)Nc1ccc(C#N)c(C(F)(F)F)c1 (configuration not stated)	5.56 µM	10.6 µM	5.03 µM	9.23 µM			36.6 µM	18.4 µM		3.92 ×10⁻⁶ cm/s	4.73 ×10⁻⁶ cm/s	1.21	Soluble	Soluble							half-life at 3 µM ([6]; microsomes): 5.97 min; microsomal CLint at 3 µM (in vitro; microsomes): 232 µL/min/mg
CC(O)(CSc1ccccc1C(F)(F)F)C(=O)Nc1ccc(C#N)c(C(F)(F)F)c1 (configuration not stated)	5.06 µM	7.73 µM	4.91 µM	7.51 µM	Dose-dependent effect	0.425 µM	25.8 µM	14.7 µM	379 µL/min/mg												half-life at 3 µM ([6]; liver microsomes): 3.66 min
CC(O)(CSc1cccc(C(F)(F)F)c1)C(=O)Nc1ccc([N+](=O)[O-])c(C(F)(F)F)c1 (configuration not stated)	5.07 µM	8.73 µM	6.44 µM	8.64 µM	Dose-dependent effect	0.625 µM	26.1 µM	13.2 µM	202 µL/min/mg	5 ×10⁻⁶ cm/s	4.27 ×10⁻⁶ cm/s	0.853	Soluble	Soluble							half-life at 3 µM ([6]; liver microsomes): 6.87 min
C[C@](O)(CSc1cccc(C(F)(F)F)c1)C(=O)Nc1ccc(C#N)c(C(F)(F)F)c1	13.1 µM	19.4 µM	14.3 µM	8.91 µM			34.6 µM	26.6 µM		6.84 ×10⁻⁶ cm/s	12.2 ×10⁻⁶ cm/s	1.78	Soluble	Soluble							half-life at 3 µM ([6]; microsomes): 4.59 min; microsomal CLint at 3 µM (in vitro; microsomes): 302 µL/min/mg
CC(O)(CSc1ccccc1OC(F)(F)F)C(=O)Nc1ccc([N+](=O)[O-])cc1C(F)(F)F (configuration not stated)	4.64 µM	6.57 to 6.58 µM	3.31 µM	5.27 µM									Soluble	Soluble	6.31 µM	8.16 µM	3.61 µM	13.8 µM	3.28 µM	3.55 µM	IC50 (DU-145 [15]): 6.16 µM; IC70 (DU-145 [15]): 7.59 µM; IC50 (CWR22R [16]): 4.47 µM; IC70 (CWR22R [16]): 5.88 µM; IC50 (VCaP [17]): 4.66 µM; IC70 (VCaP [17]): 9.39 µM
CC(O)(CS(=O)(=O)c1ccc(C(F)(F)F)cc1)C(=O)Nc1ccc(C#N)c(C(F)(F)F)c1 (configuration not stated)	21.5 µM	32.8 µM	20.1 µM	29.1 µM									Soluble	Soluble							Ratio IC50 (CWR22R [18]): 2; Ratio IC50 (DU-145 [19]): 2; Ratio IC50 (LNCaP [20]): 2; Ratio IC50 (VCaP [21]): 2
CC(O)(CS(=O)(=O)c1ccc(C(F)(F)F)cc1)C(=O)Nc1ccc([N+](=O)[O-])c(C(F)(F)F)c1 (configuration not stated)	18.7 µM	24.7 µM	17.9 µM	31.5 µM									Soluble	Soluble							Ratio IC50 (CWR22R [18]): <=2; Ratio IC50 (DU-145 [19]): <=2; Ratio IC50 (LNCaP [20]): <=2; Ratio IC50 (VCaP [21]): <=2
CC(O)(CS(=O)(=O)c1ccc(F)cc1)C(=O)Nc1ccc(C#N)c(C(F)(F)F)c1 (configuration not stated) [BICALUTAMIDE]	49.6 µM	49.2 µM	45.3 µM	68.4 µM											65.1 µM	61.3 µM	59.1 µM	> 100 µM	47.3 µM	60.9 µM	IC50 (DU-145 [15]): 46 µM; IC70 (DU-145 [15]): 58.3 µM; IC50 (CWR22R [16]): 48.5 µM; IC70 (CWR22R [16]): 64.1 µM; IC50 (VCaP [17]): 64.7 µM; IC70 (VCaP [17]): 97.3 µM
C[C@](O)(CS(=O)(=O)c1ccc(F)cc1)C(=O)Nc1ccc(C#N)c(C(F)(F)F)c1 [(R)-BICALUTAMIDE]	46.2 to 46.3 µM	45.4 µM	45.2 µM	51.6 µM					6.48 µL/min/mg						58.7 µM	56.6 µM	57.7 µM	83.4 µM	47 µM	59.3 µM	IC50 (DU-145 [15]): 41.2 µM; IC70 (DU-145 [15]): 52.6 µM; IC50 (CWR22R [16]): 44.6 µM; IC70 (CWR22R [16]): 57.1 µM; IC50 (VCaP [17]): 39.8 µM; IC70 (VCaP [17]): 52.1 µM; cell viability reduction (HepG2 [8]): 77%
O=C(Nc1ccc([N+](=O)[O-])c(C(F)(F)F)c1)C(O)(CSc1ccccc1C(F)(F)F)C(F)(F)F (configuration not stated)	1.28 µM	2.4 µM	0.719 to 0.72 µM	2.78 µM	Dose-dependent effect	0.245 µM							Soluble	Soluble	1.7 µM	2.76 µM	1.2 µM	5.73 µM	0.828 µM	1.33 µM	IC50 (DU-145 [15]): 2.36 µM; IC70 (DU-145 [15]): 2.7 µM; IC50 (CWR22R [16]): 1.27 µM; IC70 (CWR22R [16]): 1.65 µM; IC50 (VCaP [17]): 2.43 µM; IC70 (VCaP [17]): 4.8 µM
CC(C)NCC(O)COc1cccc2ccccc12 (configuration not stated) [PROPRANOLOL]										40.3 ×10⁻⁶ cm/s	41.6 ×10⁻⁶ cm/s	1.03									
CC(O)(CS(=O)(=O)c1cccc(C(F)(F)F)c1)C(=O)Nc1ccc([N+](=O)[O-])c(C(F)(F)F)c1 (configuration not stated)	16.1 µM	31.6 µM	16.2 µM	30.8 µM	Dose-dependent effect	1.07 µM							Soluble	Soluble							Ratio IC50 (CWR22R [18]): <=2; Ratio IC50 (DU-145 [19]): <=2; Ratio IC50 (LNCaP [20]): <=2; Ratio IC50 (VCaP [21]): <=2
C[C@](O)(CSc1ccc(C(F)(F)F)cc1)C(=O)Nc1ccc(C#N)c(C(F)(F)F)c1	9.75 µM	17.2 µM	14.5 µM	9.28 µM	Dose-dependent effect	2.17 µM	61.2 µM	49.6 µM	248 µL/min/mg	5.8 ×10⁻⁶ cm/s	4.74 ×10⁻⁶ cm/s	0.817	Soluble	Soluble							half-life at 3 µM ([6]; liver microsomes): 5.6 min
CC(O)(CS(=O)(=O)c1ccc(OC(F)(F)F)cc1)C(=O)Nc1ccc([N+](=O)[O-])cc1C(F)(F)F (configuration not stated)	≥ 100 µM	≥ 100 µM	≥ 100 µM	≥ 100 µM									Soluble	Soluble	> 100 µM	> 100 µM	> 100 µM	> 100 µM	> 100 µM	> 100 µM	IC50 (DU-145 [15]): > 100 µM; IC70 (DU-145 [15]): > 100 µM; IC50 (CWR22R [16]): > 100 µM; IC70 (CWR22R [16]): > 100 µM; IC50 (VCaP [17]): > 100 µM; IC70 (VCaP [17]): > 100 µM

From ChEMBL document CHEMBL4477199, “Design and synthesis of novel bicalutamide and enzalutamide derivatives as antiproliferative agents for the treatment of prostate cancer” (Eur J Med Chem, 2016)
